Target: T1, human GnRH receptor (Homo sapiens, UniProt P30968)
T1 construct: expressed in transfected cells
T1 sequence (P30968 1-328): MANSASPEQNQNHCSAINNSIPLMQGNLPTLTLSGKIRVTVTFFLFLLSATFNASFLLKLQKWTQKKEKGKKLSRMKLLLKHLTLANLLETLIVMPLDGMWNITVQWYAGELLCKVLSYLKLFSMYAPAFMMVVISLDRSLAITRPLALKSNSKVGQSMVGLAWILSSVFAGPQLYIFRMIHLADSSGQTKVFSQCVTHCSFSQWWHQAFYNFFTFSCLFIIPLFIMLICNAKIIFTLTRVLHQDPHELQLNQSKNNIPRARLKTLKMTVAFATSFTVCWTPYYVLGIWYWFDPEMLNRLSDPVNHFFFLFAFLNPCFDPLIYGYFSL
Test: IP-One functional assay for GnRHR (reported as hGnRHR Binding Ki)
Type: cell-based
Details: incubation time 60 min; FlpIn T-Rex 293 cells expressing human GnRH receptor; read-out: hGnRHR Binding Ki 60 min
From the text: General overview: GnRHR is a Gq/11-coupled receptor that mediates the action of the GnRH hormone by activating the phosphatidylinositol-calcium second messenger system. Activation of the GnRHR induces the accumulation of inositol monophosphate, a stable metabolite of IP-3, that can be characterized as a measure of agonistic activity (increase in IP-One) or antagonistic activity (blockade of IP-One accumulation) by compounds of the invention. One example of an intracellular IP-One assay used to characterize GnRHR antagonists is described below.
24 hours prior to the assay, 30,000 FlpIn T-Rex 293 Cells (ThermoFisher #R78007) stably expressing the functional human GnRH receptor upon induction with tetracycline were plated in a 96-well tissue culture-treated plate in FlpIn T-Rex 293 Growth Medium [DMEM (Corning #10-013-CM) supplemented with 10% fetal bovine serum (Gemini Bio-Products #900-208), 100 U/mL penicillin; 100 μg/mL streptomycin; 2 mM L-glutamine (Gemini Bio-Products #400-110)] and 50 ng/mL tetracycline hydrocholoride (Sigma, T7660). Cells were cultured at 37° C., 5% CO2 and 95% humidity. On the day of the assay, the growth media was discarded and the cells were treated with 50 μL of a dose response curve of GnRH (Bachem #4033013) in the presence of various concentrations of fixed compound in assay buffer [10 mM HEPES (Biopioneer Cat #C0113) pH 7.4, 1 mM CaCl2) (Fisher Scientific BP510-100), 0.5 mM MgCl2 (Sigma M8266-100G), 4.2 mM KCl (Fisher Scientific P330-500), 146 mM NaCl (Spectrum Chemical #SO155), 5.5 mM Glucose (Sigma G7528), 50 mM LiCl (Fisher Scientific L121-100), 0.1% bovine serum albumin (Fisher Scientific Cat #BP1600)] and incubated for 1 hour at 37° C. (the final concentrations of GnRH ranged from 0-250 nM and the final concentrations of the compound ranged from 0-10,000 nM). 50 μL of lysis buffer (HRTF IP-one kit, Cisbio) was added on top of the treatment to lyse the cells. The lysate was transferred to 384-well plates and IP-one detection and visualization antibodies were added and incubated for 1-24 hours at room temperature. The time-resolved fluorescent signal was read with a Tecan M1000Pro (Tecan) multiplate reader. The intracellular IP-one concentrations were calculated by regression to a standard curve and were plotted vs. the concentration of the GnRH agonists in the presence of various concentrations of antagonist and the Ks of the compounds were calculated using standard curve-fitting methods. All data manipulations were performed using GraphPad Prism v8 (GraphPad, San Diego, CA).
For some analogs, the incubation time was 2 h or 4 h, as noted in Table A.

Question: `Cc1cccc(OCCC(=O)NCCOCCOCCOCCOCCOCCOCCOCCOCCNC(=O)CN2CCN(CC(=O)O)CCN(CC(=O)O)CCN(CC(=O)O)CC2)c1N(C)C(=O)c1ccc(Cl)c(-c2cnc(C(F)(F)F)cc2C#N)c1` [Compound 8, 2,2′,2″-(10-(33-(2-(4-chloro-3-(4-cyano-6-(trifluoromethyl)pyridin-3-yl)-N-methylbenzamido)-3-methylphenoxy)-2,31-dioxo-6,9,12,15,18,21,24,27-octaoxa-3,30-diazatritriacontyl)-1,4,7,10-tetraazacyclododecane-1,4,7-triyl)triacetic acid] was tested. Which Ki did it give?
Answer: < 10 nM

Question: For `COc1ccccc1N(C)C(=O)c1cc(-c2cnc(C(F)(F)F)cc2C#N)c(Cl)cc1OCCCC(=O)NCCOCCOCCOCCOCCOCCOCCOCCOCCNC(=O)CN1CCN(CC(=O)O)CCN(CC(=O)O)CCN(CC(=O)O)CC1` [Compound 6M-In, indium(III) 2,2′,2″-(10-(34-(5-chloro-4-(4-cyano-6-(trifluoromethyl)pyridin-3-yl)-2-((2-methoxyphenyl)(methyl)carbamoyl)phenoxy)-2,31-dioxo-6,9,12,15,18,21,24,27-octaoxa-3,30-diazatetratriacontyl)-1,4,7,10-tetraazacyclododecane-1,4,7-triyl)triacetate], which Ki is on record?
Answer: < 10 nM

Question: With `CN(C(=O)c1ccc(Cl)c(-c2cnc(C(F)(F)F)cc2C#N)c1)c1ccccc1OCCOCCOCCOCCOCCOCCOCCOCCOCCNC(=O)CN1CCN(CC(=O)O)CCN(CC(=O)O)CCN(CC(=O)O)CC1` [Compound 3M-In, indium(III) 2,2′,2″-(10-(29-(2-(4-chloro-3-(4-cyano-6-(trifluoromethyl)pyridin-3-yl)-N-methylbenzamido)phenoxy)-2-oxo-6,9,12,15,18,21,24,27-octaoxa-3-azanonacosyl)-1,4,7,10-tetraazacyclododecane-1,4,7-triyl)triacetate] as the compound, how does the Ki read?
Answer: < 10 nM

Question: How did the Ki turn out when `CN(C(=O)c1ccc(Cl)c(-c2cnc(C(F)(F)F)cc2C#N)c1)c1ccccc1OCCC(=O)NCCOCCOCCOCCOCCOCCOCCOCCOCCNC(=O)CN1CCN(CC(=O)O)CCN(CC(=O)O)CCN(CC(=O)O)CC1` [Compound 2, 2,2′,2″-(10-(33-(2-(4-chloro-3-(4-cyano-6-(trifluoromethyl)pyridin-3-yl)-N-methylbenzamido)phenoxy)-2,31-dioxo-6,9,12,15,18,21,24,27-octaoxa-3,30-diazatritriacontyl)-1,4,7,10-tetraazacyclododecane-1,4,7-triyl)triacetic acid] was run?
Answer: < 10 nM

Question: `COc1ccccc1N(C)C(=O)c1cc(-c2cnc(C(F)(F)F)cc2C#N)c(Cl)cc1OCCOCCOCCOCCOCCOCCOCCOCCOCCNC(=O)CN1CCN(CC(=O)O)CCN(CC(=O)O)CCN(CC(=O)O)CC1` [Compound 5M-In, indium(III) 2,2′,2″-(10-(29-(5-chloro-4-(4-cyano-6-(trifluoromethyl)pyridin-3-yl)-2-((2-methoxyphenyl) (methyl)carbamoyl)phenoxy)-2-oxo-6,9,12,15,18,21,24,27-octaoxa-3-azanonacosyl)-1,4,7,10-tetraazacyclododecane-1,4,7-triyl)triacetate] was tested. Which Ki did it give?
Answer: < 10 nM

Same assay, conditions: incubation time 2 h; FlpIn T-Rex 293 cells expressing human GnRH receptor; read-out: hGnRHR Binding Ki 2 h

Question: `COc1nc(OCCOCCOCCOCCOCCOCCOCCOCCOCCNC(=O)CN2CCN(CC(=O)O)CCN(CC(=O)O)CCN(CC(=O)O)CC2)nc(OC)c1NC(=O)c1ccc(Oc2cc3c(cc2C)CCC3(C)C)o1` [Compound 4, 2,2′,2″-(10-(29-((4,6-dimethoxy-5-(5-((3,3,6-trimethyl-2,3-dihydro-1H-inden-5-yl)oxy)furan-2-carboxamido)pyrimidin-2-yl)oxy)-2-oxo-6,9,12,15,18,21,24,27-octaoxa-3-azanonacosyl)-1,4,7,10-tetraazacyclododecane-1,4,7-triyl)triacetic acid] was tested. Which Ki did it give?
Answer: < 10 nM

Question: `COc1nc(SCCC(=O)NCCC[C@@H](NC(=O)CN2CCN(CC(=O)O)CCN(CC(=O)O)CCN(CC(=O)O)CC2)C(=O)O)nc(OC)c1NC(=O)c1ccc(Oc2cc3c(cc2C)CCC3(C)C)o1` [Compound 16, (R)-2,2′,2″-(10-(2-((1-carboxy-4-(3-((4,6-dimethoxy-5-(5-((3,3,6-trimethyl-2,3-dihydro-1H-inden-5-yl)oxy)furan-2-carboxamido)pyrimidin-2-yl)thio)propanamido)butyl)amino)-2-oxoethyl)-1,4,7,10-tetraazacyclododecane-1,4,7-triyl)triacetic acid] was tested. Which Ki did it give?
Answer: < 10 nM

Question: How did the Ki turn out when `COc1nc(SCCC(=O)NCCN(C)CCNC(=O)CN2CCN(CC(=O)O)CCN(CC(=O)O)CCN(CC(=O)O)CC2)nc(OC)c1NC(=O)c1ccc(Oc2cc3c(cc2C)CCC3(C)C)o1` [Compound 17, 2,2′,2″-(10-(2-((2-((2-(3-((4,6-dimethoxy-5-(5-((3,3,6-trimethyl-2,3-dihydro-1H-inden-5-yl)oxy)furan-2-carboxamido)pyrimidin-2-yl)thio)propanamido)ethyl)(methyl)amino)ethyl)amino)-2-oxoethyl)-1,4,7,10-tetraazacyclododecane-1,4,7-triyl)triacetic acid] was run?
Answer: < 10 nM

Question: With `COc1nc(SCCC(=O)NCCN(C)CCNC(=O)[C@H](N)CCCNC(=O)CN2CCN(CC(=O)O)CCN(CC(=O)O)CCN(CC(=O)O)CC2)nc(OC)c1NC(=O)c1ccc(Oc2cc3c(cc2C)CCC3(C)C)o1` [Compound 19, (R)-2,2′,2″-(10-(7-amino-18-((4,6-dimethoxy-5-(5-((3,3,6-trimethyl-2,3-dihydro-1H-inden-5-yl)oxy)furan-2-carboxamido)pyrimidin-2-yl)thio)-12-methyl-2,8,16-trioxo-3,9,12,15-tetraazaoctadecyl)-1,4,7,10-tetraazacyclododecane-1,4,7-triyl)triacetic acid] as the compound, how does the Ki read?
Answer: < 10 nM

Question: With `CC1(C)CCN(S(=O)(=O)c2cc(-c3cnc(C(F)(F)F)cc3C#N)c(Cl)cc2OCCOCCOCCOCCOCCOCCOCCOCCOCCNC(=O)CN2CCN(CC(=O)O)CCN(CC(=O)O)CCN(CC(=O)O)CC2)c2ccccc21` [Compound 7, 2,2′,2″-(10-(29-(5-chloro-4-(4-cyano-6-(trifluoromethyl)pyridin-3-yl)-2-((4,4-dimethyl-3,4-dihydroquinolin-1(2H)-yl)sulfonyl)phenoxy)-2-oxo-6,9,12,15,18,21,24,27-octaoxa-3-azanonacosyl)-1,4,7,10-tetraazacyclododecane-1,4,7-triyl)triacetic acid] as the compound, how does the Ki read?
Answer: < 10 nM

— patent US20260097139A1, “GONADOTROPIN-RELEASING HORMONE RECEPTOR (GnRHR) TARGETED THERAPEUTICS AND USES THEREOF” (Radionetics Oncology, Inc., priority 2022, published 2026)
